# Test results taken from US20240315299A1, “AMIDE COMPOUNDS AND THEIR USE AS FLAVOR MODIFIERS” (FIRMENICH INCORPORATED, priority 2021, published 2024).
# Molecular target: T1, T1R umami taste receptor (Homo sapiens, UniProt Q7RTX0+Q7RTX1)
# T1 sequence (Q7RTX1 21-841): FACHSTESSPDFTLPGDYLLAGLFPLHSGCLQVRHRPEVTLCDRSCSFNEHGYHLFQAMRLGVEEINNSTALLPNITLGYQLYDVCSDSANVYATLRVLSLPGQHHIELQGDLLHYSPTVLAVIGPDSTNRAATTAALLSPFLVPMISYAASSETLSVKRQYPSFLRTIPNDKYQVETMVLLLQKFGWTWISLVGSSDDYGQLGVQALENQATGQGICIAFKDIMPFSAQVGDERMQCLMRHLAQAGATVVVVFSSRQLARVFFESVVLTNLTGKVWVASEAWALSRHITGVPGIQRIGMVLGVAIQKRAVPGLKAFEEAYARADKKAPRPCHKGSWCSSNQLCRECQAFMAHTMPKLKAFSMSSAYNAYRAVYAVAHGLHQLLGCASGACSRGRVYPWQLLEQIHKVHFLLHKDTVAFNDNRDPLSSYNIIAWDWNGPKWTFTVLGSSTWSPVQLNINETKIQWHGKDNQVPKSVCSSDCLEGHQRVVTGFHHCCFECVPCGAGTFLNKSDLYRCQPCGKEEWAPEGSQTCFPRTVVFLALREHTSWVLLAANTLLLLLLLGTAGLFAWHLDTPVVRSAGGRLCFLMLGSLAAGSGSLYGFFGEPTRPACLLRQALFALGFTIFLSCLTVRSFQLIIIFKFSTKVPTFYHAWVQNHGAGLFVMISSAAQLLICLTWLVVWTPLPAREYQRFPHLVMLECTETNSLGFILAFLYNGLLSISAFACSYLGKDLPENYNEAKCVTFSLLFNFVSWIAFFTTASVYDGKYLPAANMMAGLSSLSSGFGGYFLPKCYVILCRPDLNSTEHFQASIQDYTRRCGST
# T1 sequence (Q7RTX0 21-852): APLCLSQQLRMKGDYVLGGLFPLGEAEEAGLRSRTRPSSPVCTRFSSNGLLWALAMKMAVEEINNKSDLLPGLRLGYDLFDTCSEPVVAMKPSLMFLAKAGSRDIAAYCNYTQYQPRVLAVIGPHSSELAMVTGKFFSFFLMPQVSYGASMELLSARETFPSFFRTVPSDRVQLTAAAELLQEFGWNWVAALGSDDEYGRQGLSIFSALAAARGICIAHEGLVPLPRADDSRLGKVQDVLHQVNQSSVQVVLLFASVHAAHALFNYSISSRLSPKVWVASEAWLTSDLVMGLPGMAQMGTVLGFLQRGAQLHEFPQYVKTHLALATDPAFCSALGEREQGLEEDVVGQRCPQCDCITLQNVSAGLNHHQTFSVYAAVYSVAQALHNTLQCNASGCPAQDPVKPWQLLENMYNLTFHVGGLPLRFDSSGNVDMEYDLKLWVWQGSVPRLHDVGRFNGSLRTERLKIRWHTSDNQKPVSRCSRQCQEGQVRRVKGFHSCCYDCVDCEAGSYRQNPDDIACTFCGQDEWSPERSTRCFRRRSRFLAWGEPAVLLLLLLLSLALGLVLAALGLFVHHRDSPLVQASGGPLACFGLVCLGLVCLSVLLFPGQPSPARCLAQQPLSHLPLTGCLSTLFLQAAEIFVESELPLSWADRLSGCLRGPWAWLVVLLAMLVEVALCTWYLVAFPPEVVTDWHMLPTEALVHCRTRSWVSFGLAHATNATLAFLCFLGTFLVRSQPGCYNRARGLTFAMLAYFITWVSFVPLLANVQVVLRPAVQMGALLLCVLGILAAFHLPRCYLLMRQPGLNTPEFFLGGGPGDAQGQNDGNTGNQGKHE
# Test: in vitro cell-based assay, enhancement of MSG binding at umami taste receptor
# Settings: cells that express the T1R umami taste receptor, from dose-binding curves
# Method: Each of Compounds 101-135, as well as Compounds 168 and 169, (as set forth in Table 1) was synthesized according to one of the general procedures set forth above in Examples 1 to 4. Thereafter, the compounds were tested in an in vitro cell-based assay having cells that express the T1R umami taste receptor. Dose-binding curves were recorded and the EC50 was determined for enhancement of MSG binding. Table 2 sets forth the calculated EC50 values for certain tested compounds.
row,EC50,Structure (SMILES)
1,< 12 µM,"C/C(=C\CO)C(=O)NCCCCNC(=O)/C=C/c1ccccc1 [Compound 119, (E)-N-(4-cinnamamidobutyl)-4-hydroxy-2-methylbut-2-enamide]"
2,> 50 µM,"CC(C)=C(C)C(=O)NCCCCNC(=O)/C=C/c1ccccc1 [Compound 117, N-(4-cinnamamidobutyl)-2,3-dimethylbut-2-enamide]"
3,> 50 µM,CC(C)C(=O)NCCCCNC(=O)/C=C/c1ccccc1 [Compound 108]
4,> 50 µM,CCC(C)C(=O)NCCCCNC(=O)/C=C/c1ccccc1 (stereo not shown) [Compound 109]
5,> 50 µM,"O=C(/C=C/c1ccccc1)NCCCCNC(=O)c1ccc(O)cc1 [Compound 126, N-(4-cinnamamidobutyl)-4-hydroxybenzamide]"
6,> 50 µM,"C/C=C(\C)C(=O)NCCCCNC(=O)/C=C/c1ccc(OC)c(O)c1 [Compound 134, (E)-N-(4-((E)-3-(3-hydroxy-4-methoxyphenyl)acrylamido)butyl)-2-methylbut-2-enamide]"
7,< 8 µM,"C/C=C(\C)C(=O)NCCCCNC(=O)/C=C/c1ccccc1 [Compound 115, (E)-N-(4-cinnamamidobuty1)-2-methylbut-2-enamide]"
8,6 µM,C/C=C(\C)C(=O)NCCCCNC(=O)c1ccc2c(c1)OCO2 [Compound 106]
9,> 50 µM,"O=C(/C=C/c1ccccc1)NCCCCNC(=O)/C=C/c1ccccc1 [Compound 122, (2E,2′E)-N,N′-(butane-1,4-diyl)bis(3-phenylacrylamide)]"
10,2 µM,"C/C=C(\C)C(=O)NCCCCNC(=O)/C=C/c1ccccc1OC [Compound 127, (E)-N-(4-((E)-3-(2-methoxyphenyl)acrylamido)butyl)-2-methylbut-2-enamide]"
11,> 50 µM,"CC/C=C(\C)C(=O)NCCCCNC(=O)/C=C/c1ccccc1 [Compound 118, (E)-N-(4-cinnamamidobuty1)-2-methylpent-2-enamide]"
12,2 µM,C/C=C(\C)C(=O)NCCCCNC(=O)c1cc(C)c(C)c(C)c1 [Compound 104]
13,< 1 µM,C/C=C(\C)C(=O)NCCCCNC(=O)c1ccc(C)c(C)c1 [Compound 103]
14,> 50 µM,"O=C(/C=C/c1ccccc1)NCCCCNC(=O)c1ccccc1 [Compound 123, N-(4-cinnamamidobutyl)benzamide]"
15,> 50 µM,"CC(C)=CC(=O)NCCCCNC(=O)/C=C/c1ccccc1 [Compound 116, N-(4-cinnamamidobutyl)-3-methylbut-2-enamide]"
16,> 50 µM,C/C=C(/C)C(=O)NCCCCNC(=O)/C=C/c1ccccc1 [Compound 114]
17,2 µM,"C/C=C(\C)C(=O)NCCCCNC(=O)/C=C/c1cccc(OC)c1 [Compound 128, (E)-N-(4-((E)-3-(3-methoxyphenyl)acrylamido)butyl)-2-methylbut-2-enamide]"
18,8 µM,C/C=C(\C)C(=O)NCCCCNC(=O)c1ccc(C)cc1 [Compound 102]
19,< 1 µM,"C/C=C(\C)C(=O)NCCCCNC(=O)/C=C/c1ccc(OC)cc1 [Compound 129, (E)-N-(4-((E)-3-(4-methoxyphenyl)acrylamido)butyl)-2-methylbut-2-enamide]"
20,23 µM,"COc1ccc(C(=O)OC/C=C(\C)C(=O)NCCCCNC(=O)/C=C/c2ccccc2)cc1 [Compound 169, (E)-4-((4-cinnamamidobutyl)amino)-3-methyl-4-oxobut-2-en-1-yl 4-methoxy benzoate]"
21,< 1 µM,"C/C=C(\C)C(=O)NCCCCNC(=O)/C=C/c1ccc(OC)cc1OC [Compound 131, (E)-N-(4-((E)-3-(2,4-dimethoxyphenyl)acrylamido)butyl)-2-methylbut-2-enamide]"
22,< 1 µM,"CC(=O)OC/C=C(\C)C(=O)NCCCCNC(=O)/C=C/c1ccccc1 [Compound 168, (E)-4-((4-cinnamamidobutyl)amino)-3-methyl-4-oxobut-2-en-1-yl acetate]"
23,12 µM,C/C=C(\C)C(=O)NCCCCNC(=O)c1ccc(OC)cc1 [Compound 105]
24,< 1 µM,"C/C=C(\C)C(=O)NCCCCNC(=O)/C=C/c1ccc(OCC)cc1 [Compound 130, (E)-N-(4-((E)-3-(4-ethoxyphenyl)acrylamido)butyl)-2-methylbut-2-enamide]"
25,20 µM,"C/C=C(\C)C(=O)NCCCCNC(=O)/C=C/c1ccc2c(c1)OCO2 [Compound 133, (E)-N-(4-((E)-3-(benzo[d][1,3]dioxol-5-yl)acrylamido)butyl)-2-methylbut-2-enamide]"
26,> 50 µM,"C/C=C(\C)C(=O)NCCCCNC(=O)/C=C/c1ccc(O)c(OC)c1 [Compound 135, (E)-N-(4-((E)-3-(4-hydroxy-3-methoxyphenyl)acrylamido)butyl)-2-methylbut-2-enamide]"
27,> 50 µM,CC(=O)NCCCCNC(=O)/C=C/c1ccccc1 [Compound 107]
28,4 µM,"C/C=C(\C)C(=O)NCCCCNC(=O)/C=C/c1ccc(OC)c(OC)c1 [Compound 132, (E)-N-(4-((E)-3-(3,4-dimethoxyphenyl)acrylamido)butyl)-2-methylbut-2-enamide]"
